The values that follow come from publication PMC7146544, “Dual Plasmepsin-Targeting Antimalarial Agents Disrupt Multiple Stages of the Malaria Parasite Life Cycle” (Cell Host & Microbe, 2020).

For orientation: EC50 means the concentration at which the effect is half-maximal.

Experiment [1] relates to P. berghei sporozoites. The experiment in a line: In vivo analysis of P. berghei liver parasite growth and transition to blood infection. More on the design: species or system Plasmodium berghei. Here is the method:
Female BALB/c mice were infected with PbmCherryLuci sporozoites by either intravenous injection or infectious mosquito bite challenge. Mice (infected by either route) received either no treatment or were treated orally with WM382 (prepared as previously described) at doses and h post infection (hpi) as indicated. For i.v. injections, freshly isolated salivary gland sporozoites were filtered through glass wool to remove debris before 40,000 sporozoites were resuspended in 200 μL Schneider’s Insect Media immediately prior to injection. For infection by mosquito bite, the percent of mosquitoes that contained oocysts was used to place 5 infected mosquitoes in individual feeding cups (for example, if 83% of mosquitoes in the batch had oocysts then 6 mosquitoes were placed in each cup). Mice were anesthetised using ketamine/xylazine and placed on individual feeding cups to begin the infection. Mosquitoes were allowed to feed on the mice for 15 min and mice were rotated between feeding cups every min to promote probing and ensure that all mice were equally exposed to infectious mosquito bites. From day 3 – 30 post infection mice were monitored daily for the presence of parasites in Giemsa stained thin blood smears and considered to be protected from blood infection if they remained negative through this period.
In addition to monitoring thin blood smears, luciferase activity was used to measure liver infection (52 hpi), liver egress (55 hpi) and transition to initial blood infection (65 hpi) in mice infected intravenously. Briefly, mice were injected i.p. with 200 μL XenoLight D-Luciferin (PerkinElmer) and returned to their cage for 5 min prior to anesthesia by isofluorane inhalation for a further 5 min. Between 10 – 15 min post injection of D-luciferin, mice were maintained under isofluorane anesthesia and bioluminescent signal collected using an IVIS Lumina S5 system (PerkinElmer) with a medium binning factor and 3 min integration time. Bioluminescence emanating from a region of interest (ROI) covering the liver region (52 and 55 hpi) or whole animal (65 hpi) was quantified using Living Image software version 4.7.2 (PerkinElmer) and expressed as the total flux in photons/second (p/s). Background flux was measured using an identically sized ROI placed over the lower pelvic region below the liver (52 and 55 hpi) or uninfected mice (65 hpi) and is expressed as the limit of detection (LOD). The parasitemia of the first round of erythrocytic infection was measured at 65 hpi using a LSRFortessa X20 (Becton Dickinson) flow cytometer. Briefly, a drop of whole blood was collected from the tail in 200 μL human tonicity (HT) PBS and immediately analyzed. To identify infected blood cells, mCherry signal intensity was plotted against GFP signal intensity as a decoy reporter. The number of mCherry^+ / GFP^— events are reported per 1 × 10^6 whole blood cells with blood from uninfected mice used as a negative control.

Experiment [2] concerns P. falciparum. The experiment in a line: P. falciparum asexual blood-stage growth inhibition (LDH or SYBR Green flow cytometry). It is filed as cell-based, Plasmodium falciparum. The note with it: Plasmodium falciparum, 3D7, 3D7 parasite line, asexual blood stage; read-out: EC50, inhibition of P. falciparum growth. Here is the method:
For High Throughput Screening (HTS) of compounds we used the lactate dehydrogenase (LDH) assay to detect parasitemia ([Makler et al., 1993], [Oduola et al., 1997]) formatted in a 384 well assay using an Echo555 (Labcyte). The P. falciparum assay was conducted with minor modifications ([Gamo et al., 2010]). Briefly, an inoculum of parasitized red blood cells at 0.7% parasitemia and 2% hematocrit in RPMI-1640, 5% AlbuMAX, 2% d-sucrose, 0.3% glutamine and 150 μM hypoxanthine was used for the assay. Assay plates (Greiner #781098, 384 well, white, tissue culture treated) were prepared by dispensing 1 μl of compound from master plates at 20 μM (10% DMSO stock) into 9ul pre-dispensed growth media in each well. The parasite inoculum (30 μl) was dispensed into plates containing compounds using a Multidrop Combi dispenser (Thermo Scientific). Final assay volume was 40 μl and final compound concentration was 500 nM. The positive growth control was 0.25% DMSO and the negative growth control was 100 nM chloroquine. Plates were incubated at 37 °C for 72 h in an atmosphere of […]. Following 72 h growth, plates were sealed with parafilm and frozen at −80 °C overnight. Plates were thawed at room temperature for at least 4 h prior to LDH activity being measured. 45 μl of fresh LDH reaction mix (174 mM sodium l-lactate, 214 μM 3-acetyl pyridine adenine dinucleotide (APAD), 270 μM Nitro Blue tetrazolium chloride (NBT), 4.35 U ml-1 diaphorase, 0.7% Tween 20, 100 mM Tris-HCl pH 7.5) was dispensed into each well using a Multidrop Combi dispenser. Plates were shaken to ensure mixing and absorbance at 650 nm was measured in an EnVision (PerkinElmer) plate reader after 30 min of incubation at room temperature. Data were normalized to percent growth inhibition using positive and negative controls and analyzed using Dotmatics 5.3 and Spotfire 7.11.1 (Tibco) software.
All wells were backfilled with DMSO to 45 nL such that this remained constant (0.1% DMSO). The positive growth control was 0.1% DMSO and the negative growth control was 100 nM chloroquine. Parasite inoculum (40 μl) was dispensed into plates containing compounds as described above. All other culture and lactate dehydrogenase (LDH) reaction methods are as described previously ([Makler et al., 1993], [Oduola et al., 1997]).
After 72 h incubation at 37°C each well was fixed at room temperature for 30 min with 50 μL of 0.25% glutaraldehyde (ProSciTech) diluted in PBS. Following centrifugation at 1200 rpm for 1 min, supernatants were discarded and parasites were stained with 50 μL of 5X SYBR Green (Invitrogen) diluted in PBS. 50,000 cells were counted by flow cytometry using a Cell Lab Quanta SC – MPL Flow Cytometer (Beckman Coulter) ([Bacon et al., 2007]). Growth was expressed as a percentage of the parasitemia obtained using a vehicle control. All samples were tested in triplicate. EC50 values were determined using GraphPad Prism.
For orientation: Flow cytometry measures light scatter and fluorescence of single cells or particles in a stream.

Setting [3] is: i.v. sporozoites, 2 × 20 mpk oral.
The mark [4] stands for this setting: i.v. sporozoites, oral 20 mpk or 100 mpk b.i.d. at 36 and 48 hpi.
Setting [5] is: mosquito bite infection, 20 mpk at 36 hpi.
The mark [6] stands for this setting: mosquito bite infection, 50 mpk at 36 hpi.

Consider `CCC1(CC)CC(=O)N([C@@H]2CCOc3ccc(C(=O)N[C@H]4CC(C)(C)Oc5ccccc54)cc32)C(=N)N1` [WM382], for which, in experiment [1] (setting [3]), the delay to patency is > 4 days and the “sterile protection against blood infection” value was 50%. In experiment [1] (i.v. sporozoites, 2 × 100 mpk oral), the “sterile protection against blood infection” value turned out to be 100%. In addition, in experiment [1] (setting [4]), the “killing of liver stages and liver egress by 55 hpi” value was “did not kill P. berghei liver stages or markedly prevent liver egress in vivo”; the “parasite liver infection at 52 hpi” value is given as “no effect”. Also, in experiment [1] (setting [5]), the delay to patency was 2 days and the “protection from blood infection” value is reported as “all mice developed blood infection”. In experiment [1] (setting [6]), the delay to patency worked out at 5 days and the sterile protection is on record as 80%. For the same molecule, the “protection from patent infection” value in experiment [1] (mosquito bite infection, single dose 100 mpk at 36 hpi) is “protect all mice from developing patent infection”. The “protection from blood infection, prophylactic treatment” value in experiment [1] (single dose 50 mpk 4 h before mosquito bite infection) is reported as “did not confer any protection”. Moreover, the EC50 in experiment [2] stood at 0.6 nM.
